Reference: US20250064093A1, “FERMENTED PH-INDEPENDENT SOLUTION SPOILAGE CONTROL IN FOOD SYSTEMS” (Third Wave Bioactives, LLC, priority 2023, published 2025)

Tested on: yeast
Experiment: Natural spoilage of chicken salad, growth of yeast
Type: cell-based
Conditions: 500 ppm Nisin
Experimental: The chicken salad was freshly made and allowed to spoil naturally over time. To prevent the product from being spoiled by Lactic Acid Bacteria (LAB), which can cause an accumulation of lactic acid reducing the pH over time, Nisin preparation (500 ppm) was added. Treatments included a no preservative Control, 500 ppm Nisin, 0.1% Potassium sorbate +500 ppm Nisin (Ps+N), and 1% Bacillus fermentate +500 ppm Nisin (BA+N). Usage rates were in the range of typical inclusion in finished foods.

Substance: nisin
- yeast counts compared to Bacillus-treated samples: rose much higher
